Experimental data taken from patent US12655116B2, “Substituted isophthalic acid diamides” (Bayer Aktiengesellschaft, priority 2020, dated 2026).

Assays:
[1] = system: AMARE; assay: Post-emergence herbicidal action against AMARE; type: in vivo, Amaranthus retroflexus; details: 20 g/ha, visual assessment about 3 weeks after treatment, 100% = plants have died, 0% = like control plants
Outline: (§1)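 Percent herbicidal action is rated by eye about 3 weeks after treatment against untreated controls, where 100% means dead plants and 0% means like controls. Plants in sandy loam are sprayed on green parts at the one-leaf stage with aqueous WP or EC preparations at 600 to 800 l/ha plus 0.2% wetting agent.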

[2] = system: AVEFA; assay: Pre-emergence herbicidal action against AVEFA; type: in vivo, Avena fatua; details: 80 g/ha, pre-emergence
Outline: (§2)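 Seeds sown in sandy loam, soil-covered; compound sprayed on soil surface pre-emergence. Application: WP/EC, 600–800 l/ha, 0.2% wetting agent. Readout: visual % damage at 3 weeks.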

[3] = system: VERPE; assay: Post-emergence herbicidal action against VERPE; type: in vivo, Veronica persica
Outline: as §1

[4] = system: PHBPU; assay: Post-emergence herbicidal action against PHBPU; type: in vivo, Pharbitis purpurea
Outline: as §1

[5] = system: STEME; assay: Post-emergence herbicidal action against STEME; type: in vivo, Stellaria media
Outline: as §1

[6] = system: ECHCG; assay: Post-emergence herbicidal action against ECHCG; type: in vivo, Echinochloa crus-galli
Outline: as §1

[7] = system: ALOMY; assay: Post-emergence herbicidal action against ALOMY; type: in vivo, Alopecurus myosuroides; details: dosage 20 g/ha, visual assessment about 3 weeks after treatment vs untreated controls
Outline: as §1

[8] = system: PHBPU; assay: Pre-emergence herbicidal action against PHBPU; type: in vivo, Pharbitis purpurea; details: dosage 80 g/ha
Outline: as §2

[9] = system: DIGSA; assay: Pre-emergence herbicidal action against DIGSA; type: in vivo, Digitaria sanguinalis
Outline: as §2

[10] = system: HORMU; assay: Post-emergence herbicidal action against HORMU; type: in vivo, Hordeum murinum; details: dosage 20 g/ha
Outline: as §1

[11] = system: MATIN; assay: Post-emergence herbicidal action against MATIN; type: in vivo, Matricaria inodora
Outline: as §1

[12] = system: SETVI; assay: Pre-emergence herbicidal action against SETVI; type: in vivo, Setaria viridis; details: dosage 80 g/ha
Outline: as §2

[13] = system: VERPE; assay: Pre-emergence herbicidal action against VERPE; type: in vivo, Veronica persica; details: dosage 80 g/ha
Outline: as §2

[14] = system: POLCO; assay: Pre-emergence herbicidal action against POLCO; type: in vivo, Polygonum convolvulus; details: dosage 80 g/ha
Outline: as §2

[15] = system: AMARE; assay: Pre-emergence herbicidal action against AMARE; type: in vivo, Amaranthus retroflexus
Outline: as §2

[16] = system: ECHCG; assay: Pre-emergence herbicidal action against ECHCG; type: in vivo, Echinochloa crus-galli
Outline: as §2

[17] = system: LOLRI; assay: Pre-emergence herbicidal action against LOLRI; type: in vivo, Lolium rigidum; details: 80 g/ha
Outline: as §2

[18] = system: ABUTH; assay: Post-emergence herbicidal action against ABUTH; type: in vivo, Abutilon theophrasti; details: visual assessment about 3 weeks after treatment vs untreated controls
Outline: as §1

[19] = system: MATIN; assay: Pre-emergence herbicidal action against MATIN; type: in vivo, Matricaria inodora
Outline: as §2

[20] = system: ALOMY; assay: Pre-emergence herbicidal action against ALOMY; type: in vivo, Alopecurus myosuroides; details: 80 g/ha, pre-emergence, scored visually after 3 weeks vs untreated controls (100% = plants have died, 0% = like control plants)
Outline: as §2

[21] = system: STEME; assay: Pre-emergence herbicidal action against STEME; type: in vivo, Stellaria media
Outline: as §2

[22] = system: VIOTR; assay: Pre-emergence herbicidal action against VIOTR; type: in vivo, Viola tricolor
Outline: as §2

[23] = system: HORMU; assay: Pre-emergence herbicidal action against HORMU; type: in vivo, Hordeum murinum; details: 80 g/ha, pre-emergence
Outline: as §2

[24] = system: ABUTH; assay: Pre-emergence herbicidal action against ABUTH; type: in vivo, Abutilon theophrasti; details: for Pre-emergence action against ABUTH (herbicidal activity): 80 g/ha, scored visually after 3 weeks vs untreated controls (100% = plants have died, 0% = like control plants); for Pre-emergence action against ABUTH (herbicidal activity in percent): dosage 20 g/ha, scored visually after 3 weeks vs untreated controls, 100% = plants have died, 0% = like control plants
Outline: as §2

[25] = system: VIOTR; assay: Post-emergence herbicidal action against VIOTR; type: in vivo, Viola tricolor
Outline: as §1

[26] = system: DIGSA; assay: Post-emergence herbicidal action against DIGSA; type: in vivo, Digitaria sanguinalis
Outline: as §1

[27] = system: SETVI; assay: Post-emergence herbicidal action against SETVI; type: in vivo, Setaria viridis
Outline: as §1

[28] = system: AVEFA; assay: Post-emergence herbicidal action against AVEFA; type: in vivo, Avena fatua; details: 20 g/ha, visual assessment about 3 weeks after treatment, 100% = plants have died, 0% = like control plants
Outline: as §1

[29] = 20 g/ha, scored visually after 3 weeks vs untreated controls, 100% = plants have died, 0% = like control plants
[30] = 80 g/ha, scored visually after 3 weeks vs untreated controls (100% = plants have died, 0% = like control plants)

CCn1nnnc1NC(=O)c1ccc(C(F)F)c(C(=O)NC2CC2)c1C [Example 2-46]
Post-emergence action at 20 g/ha against AMARE in % [1]: 100% | Pre-emergence action against AVEFA in % [2]: 100% | Post-emergence action against VERPE in % ([3]; 5 g/ha): 80% | Post-emergence action against VERPE in % ([3]; 20 g/ha): 80% | Post-emergence action against PHBPU in % ([4]; dosage 20 g/ha): 80% | Post-emergence action against STEME in % ([5]; 20 g/ha): 80% | Post-emergence action against STEME in % ([5]; dosage 5 g/ha): 80% | Post-emergence action against ECHCG in % ([6]; dosage 20 g/ha): 80% | Post-emergence action against ALOMY in % [7]: 80% | Pre-emergence action against PHBPU in % [8]: 90% | Pre-emergence action against DIGSA in % ([9]; dosage 20 g/ha): 100% | Pre-emergence action against DIGSA in % ([9]; dosage 80 g/ha): 100% | Post-emergence action against HORMU in % [10]: 80% | Post-emergence action against MATIN in % ([11]; dosage 20 g/ha): 80% | Pre-emergence action against SETVI in % [12]: 100% | Pre-emergence action against VERPE in % [13]: 90% | Pre-emergence action against POLCO in % [14]: 90% | Pre-emergence action against AMARE in % [15, 29]: 100% | Pre-emergence action against AMARE in % [15, 30]: 100% | Pre-emergence action against ECHCG in % ([16]; 80 g/ha): 90% | Pre-emergence action against LOLRI in % [17]: 90% | Post-emergence action against ABUTH in % ([18]; dosage 5 g/ha): 80% | Post-emergence action against ABUTH in % ([18]; dosage 20 g/ha): 80% | Pre-emergence action against MATIN in % ([19]; dosage 20 g/ha): 90% | Pre-emergence action against MATIN in % ([19]; dosage 80 g/ha): 100% | Pre-emergence action against ALOMY (herbicidal activity) [20]: 100% | Pre-emergence action against STEME in % ([21]; dosage 20 g/ha): 90% | Pre-emergence action against STEME in % ([21]; dosage 80 g/ha): 100% | Pre-emergence action against VIOTR in % ([22]; dosage 20 g/ha): 100% | Pre-emergence action against VIOTR in % ([22]; dosage 80 g/ha): 100% | Pre-emergence action against HORMU in % [23]: 90% | Pre-emergence action against ABUTH (herbicidal activity) [24]: 100% | Pre-emergence action against ABUTH (herbicidal activity in percent) [24]: 100% | Post-emergence action against VIOTR in % ([25]; 5 g/ha): 80% | Post-emergence action against VIOTR in % ([25]; 20 g/ha): 80%

CCn1nnnc1NC(=O)c1ccc(C(F)F)c(C(=O)NC)c1SC [Example 2-87]
Post-emergence action against DIGSA in % ([26]; 5 g/ha): 90% | Post-emergence action against DIGSA ([26]; 20 g/ha): 90% | Post-emergence action at 20 g/ha against AMARE in % [1]: 90% | Pre-emergence action against AVEFA in % [2]: 90% | Post-emergence action against VERPE in % ([3]; 20 g/ha): 80% | Post-emergence action against PHBPU in % ([4]; dosage 5 g/ha): 80% | Post-emergence action against PHBPU in % ([4]; dosage 20 g/ha): 80% | Post-emergence action against STEME in % ([5]; 20 g/ha): 90% | Post-emergence action against STEME in % ([5]; dosage 5 g/ha): 80% | Post-emergence action against ECHCG in % ([6]; dosage 5 g/ha): 80% | Post-emergence action against ECHCG in % ([6]; dosage 20 g/ha): 80% | Post-emergence action against ALOMY in % [7]: 80% | Pre-emergence action against PHBPU in % [8]: 80% | Pre-emergence action against DIGSA in % ([9]; dosage 20 g/ha): 100% | Pre-emergence action against DIGSA in % ([9]; dosage 80 g/ha): 100% | Post-emergence action against HORMU in % [10]: 80% | Post-emergence action against MATIN in % ([11]; dosage 5 g/ha): 80% | Post-emergence action against MATIN in % ([11]; dosage 20 g/ha): 90% | Pre-emergence action against SETVI in % [12]: 100% | Pre-emergence action against VERPE in % [13]: 90% | Pre-emergence action against AMARE in % [15, 29]: 100% | Pre-emergence action against AMARE in % [15, 30]: 100% | Pre-emergence action against ECHCG in % ([16]; 20 g/ha): 80% | Pre-emergence action against ECHCG in % ([16]; 80 g/ha): 100% | Pre-emergence action against LOLRI in % [17]: 80% | Post-emergence action against ABUTH in % ([18]; dosage 5 g/ha): 90% | Post-emergence action against ABUTH in % ([18]; dosage 20 g/ha): 90% | Pre-emergence action against MATIN in % ([19]; dosage 20 g/ha): 90% | Pre-emergence action against MATIN in % ([19]; dosage 80 g/ha): 90% | Pre-emergence action against ALOMY (herbicidal activity) [20]: 80% | Pre-emergence action against STEME in % ([21]; dosage 20 g/ha): 100% | Pre-emergence action against STEME in % ([21]; dosage 80 g/ha): 100% | Post-emergence action against SETVI in % ([27]; dosage 5 g/ha): 80% | Post-emergence action against SETVI in % ([27]; dosage 20 g/ha): 80% | Pre-emergence action against VIOTR in % ([22]; dosage 20 g/ha): 90% | Pre-emergence action against VIOTR in % ([22]; dosage 80 g/ha): 90% | Pre-emergence action against HORMU in % [23]: 80% | Post-emergence action at 20 g/ha against AVEFA in % [28]: 80% | Pre-emergence action against ABUTH (herbicidal activity) [24]: 100% | Pre-emergence action against ABUTH (herbicidal activity in percent) [24]: 100% | Post-emergence action against VIOTR in % ([25]; 20 g/ha): 100%
